Reference: the NIST ThermoML archive (doi:10.1021/je034218n)

Conditions: Liquid, vibrating tube

COCCOCCO [2-(2-methoxyethoxy)ethanol]
mass density [kg/m3]
Conditions | 100 kPa | 1000 kPa | 2500 kPa | 5000 kPa | 7500 kPa | 10000 kPa | 15000 kPa | 20000 kPa | 25000 kPa
283.15 K | 1028.5 | 1029 | 1029.8 | 1031.2 | 1032.5 | 1033.9 | 1036.4 | 1039 | 1041.4
293.15 K | 1019.5 | 1020 | 1020.9 | 1022.3 | 1023.7 | 1025.2 | 1027.9 | 1030.5 | 1033.1
303.15 K | 1010.8 | 1011.3 | 1012.2 | 1013.6 | 1015 | 1016.4 | 1019.3 | 1022.1 | 1024.8
313.15 K | 1002 | 1002.6 | 1003.5 | 1005.1 | 1006.7 | 1008.2 | 1011.2 | 1014.1 | 1016.9
323.15 K | 993.2 | 993.9 | 994.9 | 996.6 | 998.3 | 1000 | 1003.2 | 1006.2 | 1009.2
333.15 K | 983.9 | 984.6 | 985.6 | 987.4 | 989.1 | 990.8 | 994.1 | 997.2 | 1000.2
343.15 K | 975.2 | 975.8 | 977 | 978.8 | 980.6 | 982.4 | 985.9 | 989.2 | 992.4
353.15 K | 965.7 | 966.4 | 967.6 | 969.5 | 971.4 | 973.3 | 976.9 | 980.4 | 983.7

CCOCCOCCO [3,6-dioxa-1-octanol]
mass density [kg/m3]
Conditions | 100 kPa | 1000 kPa | 2500 kPa | 5000 kPa | 7500 kPa | 10000 kPa | 15000 kPa | 20000 kPa | 25000 kPa
283.15 K | 997.7 | 998.2 | 999.1 | 1000.6 | 1002 | 1003.4 | 1006.1 | 1008.8 | 1011.3
293.15 K | 988.4 | 988.9 | 989.8 | 991.3 | 992.8 | 994.3 | 997.2 | 999.9 | 1002.6
303.15 K | 979.5 | 980.1 | 981.1 | 982.6 | 984.2 | 985.8 | 988.8 | 991.7 | 994.6
313.15 K | 970.6 | 971.2 | 972.2 | 973.9 | 975.5 | 977.1 | 980.3 | 983.4 | 986.3
323.15 K | 961.5 | 962.1 | 963.2 | 965 | 966.8 | 968.5 | 971.9 | 975.1 | 978.2
333.15 K | 952.4 | 953.1 | 954.3 | 956.1 | 958 | 959.7 | 963.2 | 966.5 | 969.8
343.15 K | 943.4 | 944.1 | 945.3 | 947.3 | 949.2 | 951.1 | 954.8 | 958.3 | 961.6
353.15 K | 934.1 | 934.9 | 936.1 | 938.2 | 940.2 | 942.2 | 946 | 949.7 | 953.2
